Data reported in US20230172984A1, “CLEARANCE OF SENESCENT CELLS BY ACTIVATION OF iNKT CELLS” (THE REGENTS OF THE UNIVERSITY OF CALIFORNIA, priority 2020, published 2023).

Tested on: senescent preadipocytes (C12FDG^Hi) in eWAT of HFD mice
Experiment: C12FDG flow cytometry assay (SA-βgal activity) on eWAT SVF of HFD mice
Format: in vivo, mouse
Conditions: HFD-fed mice treated with ABT-737 vs vehicle-treated controls
Experimental: MATERIALS AND METHODS. Mouse husbandry. All procedures involving mice were performed according to the IACUC standards following ethics approval by the animal committee at the University of California, San Francisco. Male C57BL6/J on chow or HFD fed mice. HFD mice were fed a high-fat diet (60% kcal from fat) from 6 weeks until 22 weeks of age. All experiments on HFD mice were performed at 22-24 weeks total age (16-18 weeks on HFD). Age-matched male C57BL6/J mice on standard rodent chow diet were used as controls. For the lung injury model, 10-week-old male C57BL/6J mice were used. The animals were divided into three groups: the control group, the injured group, and the α-GalCer treated group. The animals in the control group received vehicle only (i.p.) on day 10. The injured group animals received bleomycin (3 U/kg) via the intratracheal route at the start of the experiment (day 0). The animals in the α-GalCer treated groups received bleomycin (3 U/kg) on day 0, and i.p. injection of α-GalCer (2 μg/mouse) on day 10. The animals in all the groups were sacrificed on day 14, and lungs were harvested for isolation of primary pulmonary Alveolar Type II cells (ATII) on the same day. For the hydroxyproline assay, mice were euthanized 21 days after injury.
Epidydmal white adipose tissue stromal vascular fraction (eWAT SVF) isolation. eWAT SVF was isolated using standard protocols. Briefly, mice were euthanized, and epididymal fat pads were harvested, washed twice in D-PBS and minced. eWAT pads were digested with 1 U/ml Collagenase-D (Roche) in 1×HBSS containing 1% BSA (Sigma-Aldrich) for 1 hr at 37° C. Digested fat tissue was then strained twice through 100 μm strainers and neutralized with 30 ml of complete culture media (DMEM-F12 1:1, 10% FBS, 1×Penicillin-streptomycin). Samples were spun at 500 g for 5 minutes, shaken to resuspend the SVF pellet and then spun again. The resulting SVF pellet containing blood cells was lysed with ACKS buffer, washed in D-PBS and spun down. Total live SVF cells were counted using trypan blue and then used for various assays.
C12FDG flow cytometry assay. eWAT SVF cells isolated and counted as described above were adjusted to 3×10^6 cells/ml in complete culture media and incubated with 33 μM C12FDG for 1 hr in a 37° C. water bath. Cells were then spun down at 500 g for 5 minutes, washed with Cell Staining buffer, and stained with anti-CD45-APC (clone 30F-11) and anti-CD31-PE-Cy7 (clone 390) each at a 1:200 dilution on ice for 30 minutes. Cells were then washed in Cell Staining buffer and resuspended in Cell Staining buffer containing 1×7-AAD. Samples were analyzed on an Attune acoustic focusing cytometer. Gates were set as follows: cells (FSC-A/SSC-A), forward scatter singlets (FSC-H/FSC-A), side-scatter singlets (SSC-H/SSC-A), live cells (7-AAD^−), non-immune cells (CD45^−), non-endothelial cells (CD31^−) and analyzed for C12FDG fluorescence. […] Data were analyzed with FlowJo (v. 10). For Lung, 1×10^6 cells from each sample were used to perform the assay. The cells were incubated with 66 μm of C12FDG in sterile DMEM containing DNase for 1 hour at 37° C. Following the incubation, the cells were washed with cell staining buffer, blocked with anti CD16/32 mouse monoclonal antibody (1:1000, prepared by the UCSF monoclonal antibody core), and stained with APC anti-mouse CD45 (1:400), and 7-AAD (1:1000). The gating strategy followed selected 7-AAD^−, CD45^−, and C12FDG^+ cells. […]

CN(C)CC[C@H](CSc1ccccc1)Nc1ccc(S(=O)(=O)NC(=O)c2ccc(N3CCN(Cc4ccccc4-c4ccc(Cl)cc4)CC3)cc2)cc1[N+](=O)[O-] [ABT-737]
number of C12FDG^Hi cells in preadipocyte-enriched SVF population (FIG. 2C): reduced the number of C12FDG^Hi cells | relative number of C12FDG^Lo cells in preadipocyte-enriched SVF population (FIG. 2D): increased the relative number of C12FDG^Lo cells
